Data reported in article PMC6934184, “Selective DNA-PKcs inhibition extends the therapeutic index of localized radiotherapy and chemotherapy” (The Journal of Clinical Investigation, 2019).

Biological target: T1, SRMS (Srm) (Homo sapiens, UniProt Q9H3Y6)
T1 construct: purchased Thermo Fisher Scientific (Life Technologies) SelectScreen
Assay: SelectScreen Z'LYTE
Assay type: biochemical
Outline: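 Percent values come from Thermo SelectScreen profiling of NU5455, combining activity and binding assays. CSF1R was run in Z'LYTE format at Km app ATP, and CAMK1 in Adapta format with ATP listed at 10.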

T1 sequence (Q9H3Y6 whole entry): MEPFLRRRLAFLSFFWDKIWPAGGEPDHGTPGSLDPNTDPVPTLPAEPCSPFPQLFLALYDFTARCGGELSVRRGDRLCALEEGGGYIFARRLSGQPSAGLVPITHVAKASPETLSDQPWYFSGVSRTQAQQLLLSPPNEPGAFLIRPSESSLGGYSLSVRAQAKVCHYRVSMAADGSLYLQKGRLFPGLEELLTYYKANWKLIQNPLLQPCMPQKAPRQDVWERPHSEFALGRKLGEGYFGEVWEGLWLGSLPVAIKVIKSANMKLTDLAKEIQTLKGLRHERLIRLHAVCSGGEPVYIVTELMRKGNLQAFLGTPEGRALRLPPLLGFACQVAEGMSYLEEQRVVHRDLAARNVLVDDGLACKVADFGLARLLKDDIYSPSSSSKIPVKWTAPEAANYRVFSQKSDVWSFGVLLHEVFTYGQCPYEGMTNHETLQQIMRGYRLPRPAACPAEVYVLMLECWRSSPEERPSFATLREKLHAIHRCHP

For `CN(C(=O)CN1CCOCC1)c1ccc2sc3c(-c4cccc5c(=O)cc(N6CC7CCC(C6)O7)oc45)cccc3c2c1` [NU5455], the inhibition at 1 µM was 7.5%.
